In patent US12042481B2, “Use of (1R,5S)-(+)-1-(naphthalen-2-yl)-3-azabicyclo[3.1.0]hexane in the treatment of conditions affected by monoamine neurotransmitters” (priority 2011, dated 2024):

Test system: monoamine uptake transporters
Experiment: Microdialysis in rat prefrontal cortex (extracellular NE, DA, 5-HT)
Type: in vivo
Experimental: To evaluate the effect of (1R,5S)-(+)-1-(naphthalen-2-yl)-3-azabicyclo[3.1.0]hexane on monoamine uptake transporters in vivo, microdialysis studies were performed in rat brain regions.
Microdialysis studies were conducted using male Wistar rats (250-300 g) bred at the Institute of Pharmacology, the Polish Academy of Sciences, Krakow, Poland. The rats (250-300 g) were housed on a 12 h/12 h light/dark cycle at a constant temperature and humidity, and were provided with food and water ad libitum. The microdialysis procedure has been previously described (Popik et al., 2006). Briefly, the rats were anaesthetized with ketamine (75 mg/kg IM) and xylazine (10 mg/kg IM), placed in a stereotaxic apparatus (David Kopf Instruments, Tujunga, CA, USA) with their skulls exposed. Small holes were drilled in the skull for insertion of the vertical microdialysis probes into the prefrontal cortex and striatum, respectively using the following coordinates: 2.9 mm anterior from the bregma, 0.8 mm lateral from the sagittal suture and −4.5 ventral from the dura surface (prefrontal cortex); 1.8 mm anterior from the bregma, 2.7 mm lateral from the sagittal suture and −7.0 mm ventral from the dura surface (striatum) (Paxinos and Watson, 1998). Microdialysis probes were constructed by inserting two fused silica tubes (30 and 35 mm long, 150 μm o.d.; Polymicro Technologies Inc., Phoenix, AZ, USA) into a microdialysis fiber (220 μm o.d.; AN69, Hospal, Bologna, Italy). The tube assembly was placed in a stainless steel cannula (22 G, 10 mm) forming the shaft of the probe. Portions of the inlet and outlet tubes were individually placed inside polyethylene PE-10 tubing and were glued for protection. The free end of the dialysis fibre was sealed, and 3 mm of the exposed length used for dialysis in prefrontal cortex and 4 mm for striatum. One day after the surgery and probe implantation, the inlet of the dialysis probes was connected to a syringe pump (BAS, IN, USA) which delivered an artificial cerebrospinal fluid (aCSF) composed of [in mM]: NaCl 145, KCl 2.7, MgCl2 1.0, CaCl2 1.2; pH=7.4 at a flow rate of 1.5 μl/min. After a two hour rinsing period to stabilize the extracellular level of neurotransmitters, 3-4 baseline samples were collected in 20 minute sampling periods. Next, (1R,5S)-(+)-1-(naphthalen-2-yl)-3-azabicyclo[3.1.0]hexane (dissolved in 0.9% saline solution) at doses of 10 or 20 mg/kg intraperioneally (i.p.) was administered to the animals at 4 ml/kg and consequent dialysate fractions were collected every 20 min for 3 hrs. At the end of the experiments the rats were sacrificed and their brains were histologically examined to validate the correct probe placement
Dopamine, and serotonin (5-HT) were analysed by HPLC with electrochemical detection. Chromatography was performed using an LC-10 AD pump (Shimadzu Europa GmbH, Warszawa, Poland), an LC-4B amperometric detector with a cross-flow detector cell (BAS, IN, USA) and BDS-Hypersil C18 analytical column (3×100 mm, 3 μm, Thermo Electron Corp., UK). The mobile phase was composed of 0.1 M monochloracetic acid adjusted to pH=3.7 with 3 M sodium hydroxide, 0.5 mM EDTA, 25 mg/L 1-octanesulfonic acid sodium salt, 5.7% methanol, and 2.5% acetonitrile. The flow rate was 0.5 ml/min, and the applied potential of a 3 mm glassy carbon electrode was +600 mV with a sensitivity of 2 nA/V. Norepinephrine was measured using HPLC system equipped with a P580 pump (Dionex, CA, USA) connected to a BAS injection valve with a 10 μI injection loop and a BDS-Hypersil analytical column (2.0×100 mm, a 3 μm, Thermo Electron Corp., UK). The mobile phase was composed of 0.05 M potassium dihydrogen phosphate (adjusted to pH=3.7 with ortho-phosphoric acid), 0.5 mM EDTA, 150 mg/L 1-octanesulfonic acid sodium salt, 10 mM NaCl, and 1.2% acetonitrile. The flow rate was 180 μl/min. NE in the dialysates was detected with a BAS UniJet radial flow detector cell coupled to a LC-4B amperometric detector (BAS, IN, USA). […]

c1ccc2cc([C@]34CNC[C@H]3C4)ccc2c1 [(1R,5S)-(+)-1-(naphthalen-2-yl)-3-azabicyclo[3.1.0]hexane]
time by which extracellular 5-HT was markedly increased: ≤ 40 min | peak increase of extracellular NE (10 mg/kg i.p.): over 325 % of baseline | peak increase of extracellular NE (20 mg/kg i.p.): > 375 % of baseline | duration of increase of extracellular DA (10 and 20 mg/kg i.p.): over 3 hours | duration of increase of extracellular NE (10 and 20 mg/kg i.p.): over 3 hours | peak increase of extracellular 5-HT (10 and 20 mg/kg i.p.): 300 % of baseline | time after administration at which extracellular NE was markedly increased (10 and 20 mg/kg i.p.): 40 min | time by which extracellular DA was increased (10 and 20 mg/kg i.p.): ≤ 20 min | duration of significant increase of extracellular 5-HT (both doses 10 and 20 mg/kg i.p.): over 3 hours | peak increase of extracellular DA (the two doses 10 and 20 mg/kg i.p.): 240-300 % of baseline
